Consider 23 molecules from PubChem BioAssay (NCI).

Structures are written as SMILES. Where “and” joins values, the source holds several entries; their conditions need not be identical. Equal entries are not always repeated.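 Values below derive from 48-hour exposures of cells grown in 96-well plates, with endpoints linearly interpolated between the two concentrations bracketing the appropriate inhibition level. Here, GI50 denotes the concentration required for 50% inhibition of growth. TGI is the concentration that stops growth completely.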

One assay concerns MOLT-4 leukemia. The assay can be described thus: NCI tumour cell line growth inhibition, 48 h.
As to `C=C1c2nc3ccccc3n2C=C(c2ccccc2)N1c1ccc([N+](=O)[O-])cc1`, the TGI is > 100 µM.
Turning to `Cc1c2cnccc2c(C)c2c1c1ccccc1n2CCCN`, the GI50 was < 0.0178 µM; the TGI was 0.472 µM and 0.217 µM.
Consider `O=c1[nH][nH]c(=O)n1Cc1ccccc1Cn1c(=O)[nH][nH]c1=O`, for which the TGI is > 100 µM.
Still for that read-out and setting: the result for `O=C(NNC(=O)c1ccccc1SSc1ccccc1C(=O)NNC(=O)c1ccccc1S)c1ccccc1S` reads > 87 µM.
Consider `CN1CCN([C@H]2C[C@H]3[C@@H]4CC=C5C[C@@H](O)CC[C@]5(C)[C@H]4CC[C@]3(C)C2=O)CC1`, for which the TGI was > 100 µM.
The molecule `C=C(C1=CC(=O)C(C)(C)O1)[C@@H]1CC=C([C@@H]2CC[C@H]3[C@@]2(C)CC[C@H]2C(C)(C)C(=O)[C@H](O)C[C@]32C)[C@H](O)O1` yielded a TGI of 3.96 µM.
`CCNC(=S)N/N=C/c1cc([N+](=O)[O-])ccc1O` returned a TGI of 63.7 µM.
On the same count and under the same terms, the result for `Cc1cc(O)c2c(=O)c3ccccc3[nH]c2c1` reads > 100 µM; that for `Oc1cccc2c(Cl)ccnc12`, 4.19 µM.
Still for that read-out and setting: as for `Clc1cc(OC2C3CC4CC(C3)CC2C4)nc(Cl)n1` (stereo not given), the figure is 34.8 µM.
Same read-out and setting: as for `Cc1cccc(/C=N/NC(=S)Nc2ccccc2)n1`, the figure is > 100 µM.
In turn, `CCCN=C1CCN(Cc2ccccc2)c2ccccc2N1` gave a TGI of 34.1 µM.
As for `CC(C)c1ccc(/C=C2/C=C(c3ccc4ccccc4c3)OC2=O)cc1`, the TGI amounted to 56.8 µM.
On the same count and under the same terms, the result for `COc1cc(/C=C/C(=N\NS(=O)(=O)c2ccc(C)cc2)c2sc(NNC(C)=O)nc2C)ccc1O` reads > 100 µM; that for `Oc1ccc(-c2nc(-c3cccnc3)c(-c3ccc(F)cc3)[nH]2)cc1`, 33.2 µM; that for `CC(C)/C(Cl)=N\OC(=O)Nc1ccc(S(N)(=O)=O)cc1`, 5.42 µM.
With `CNC(=O)OCC1=C(COC(=O)NC)C(C)N(c2ccc(OC)cc2)C1` (stereo not given), the TGI was > 100 µM.
Still for that read-out and setting: as for `N#CC1=C(N)N(c2ccccc2)C(c2ccco2)C1(C#N)C#N` (stereo not given), the figure is 71 µM.
On the same count and under the same terms, the result for `O=S1(=O)NC(=NCc2c[nH]c3ccccc23)N(c2ccccc2)c2ccncc21` reads > 100 µM; that for `Cc1ccsc1/C=N/Nc1ncccn1`, > 100 µM.
Same read-out and setting: as for `Nc1cccc2cc(Cl)cnc12`, the figure is > 100 µM.
Turning to `COc1c(C)c(C/C=C(\C)CCCCO[Si](c2ccccc2)(c2ccccc2)C(C)(C)C)c(OC)c(OC)c1OC`, the TGI is > 46.4 µM.

Another assay has as its system ACHN renal. The assay can be described thus: NCI tumour cell line growth inhibition, 48 h.
Take `C[C@@]12C[C@@H](c3ccccc3O1)N1CCCCSC1=N2`: the TGI was > 100 µM.
Same read-out and setting: as for `C=C1c2nc3ccccc3n2C=C(c2ccccc2)N1c1ccc([N+](=O)[O-])cc1`, the figure is 12.8 µM; as for `Cc1c2cnccc2c(C)c2c1c1ccccc1n2CCCN`, 0.893 µM.
As to `O=c1[nH][nH]c(=O)n1Cc1ccccc1Cn1c(=O)[nH][nH]c1=O`, the TGI was > 100 µM.
Consider `O=C(NNC(=O)c1ccccc1SSc1ccccc1C(=O)NNC(=O)c1ccccc1S)c1ccccc1S`, for which the TGI was > 100 µM.
On the same count and under the same terms, as for `CN1CCN([C@H]2C[C@H]3[C@@H]4CC=C5C[C@@H](O)CC[C@]5(C)[C@H]4CC[C@]3(C)C2=O)CC1`, the figure is > 100 µM; as for `C=C(C1=CC(=O)C(C)(C)O1)[C@@H]1CC=C([C@@H]2CC[C@H]3[C@@]2(C)CC[C@H]2C(C)(C)C(=O)[C@H](O)C[C@]32C)[C@H](O)O1`, 3.04 µM.
The same measure, in the same setting: the result for `CCNC(=S)N/N=C/c1cc([N+](=O)[O-])ccc1O` reads > 100 µM; that for `Cc1cc(O)c2c(=O)c3ccccc3[nH]c2c1`, > 100 µM; that for `Oc1cccc2c(Cl)ccnc12`, > 47.7 µM.
Same read-out and setting: as for `Clc1cc(OC2C3CC4CC(C3)CC2C4)nc(Cl)n1` (stereo not given), the figure is 32.8 µM.
For the molecule `Cc1cccc(/C=N/NC(=S)Nc2ccccc2)n1`, the TGI stood at 13.7 µM.
Still for that read-out and setting: as for `CCCN=C1CCN(Cc2ccccc2)c2ccccc2N1`, the figure is 94.1 µM; as for `CC(C)c1ccc(/C=C2/C=C(c3ccc4ccccc4c3)OC2=O)cc1`, > 100 µM.
On the same count and under the same terms, the result for `COc1cc(/C=C/C(=N\NS(=O)(=O)c2ccc(C)cc2)c2sc(NNC(C)=O)nc2C)ccc1O` reads > 100 µM; that for `Oc1ccc(-c2nc(-c3cccnc3)c(-c3ccc(F)cc3)[nH]2)cc1`, 58.5 µM.
In the case of `CC(C)/C(Cl)=N\OC(=O)Nc1ccc(S(N)(=O)=O)cc1`, the TGI was determined as 26.8 µM.
Still for that read-out and setting: as for `CNC(=O)OCC1=C(COC(=O)NC)C(C)N(c2ccc(OC)cc2)C1` (stereo not given), the figure is > 100 µM; as for `N#CC1=C(N)N(c2ccccc2)C(c2ccco2)C1(C#N)C#N` (stereo not given), 32 µM.
Same read-out and setting: as for `O=S1(=O)NC(=NCc2c[nH]c3ccccc23)N(c2ccccc2)c2ccncc21`, the figure is > 100 µM; as for `Cc1ccsc1/C=N/Nc1ncccn1`, > 100 µM.
With `Nc1cccc2cc(Cl)cnc12`, the TGI was > 100 µM.
Still for that read-out and setting: the result for `COc1c(C)c(C/C=C(\C)CCCCO[Si](c2ccccc2)(c2ccccc2)C(C)(C)C)c(OC)c(OC)c1OC` reads 25.1 µM.

A further assay deals with SNB-75 CNS. The assay can be described thus: NCI tumour cell line growth inhibition, 48 h.
In the case of `C[C@@]12C[C@@H](c3ccccc3O1)N1CCCCSC1=N2`, the TGI is > 100 µM.
The same measure, in the same setting: as for `C=C1c2nc3ccccc3n2C=C(c2ccccc2)N1c1ccc([N+](=O)[O-])cc1`, the figure is 16.4 µM.
`Cc1c2cnccc2c(C)c2c1c1ccccc1n2CCCN`: the GI50 is 0.169 µM; the TGI was 1.48 µM and 0.368 µM.
On to `O=c1[nH][nH]c(=O)n1Cc1ccccc1Cn1c(=O)[nH][nH]c1=O`, for which the TGI is > 100 µM.
Turning to `O=C(NNC(=O)c1ccccc1SSc1ccccc1C(=O)NNC(=O)c1ccccc1S)c1ccccc1S`, the TGI is > 49.8 µM.
In the case of `CN1CCN([C@H]2C[C@H]3[C@@H]4CC=C5C[C@@H](O)CC[C@]5(C)[C@H]4CC[C@]3(C)C2=O)CC1`, the TGI is > 100 µM.
The same measure, in the same setting: the result for `C=C(C1=CC(=O)C(C)(C)O1)[C@@H]1CC=C([C@@H]2CC[C@H]3[C@@]2(C)CC[C@H]2C(C)(C)C(=O)[C@H](O)C[C@]32C)[C@H](O)O1` reads 25.1 µM.
On the same count and under the same terms, the result for `CCNC(=S)N/N=C/c1cc([N+](=O)[O-])ccc1O` reads > 100 µM; that for `Cc1cc(O)c2c(=O)c3ccccc3[nH]c2c1`, 93.6 µM.
Still for that read-out and setting: the result for `Oc1cccc2c(Cl)ccnc12` reads > 100 µM.
`Clc1cc(OC2C3CC4CC(C3)CC2C4)nc(Cl)n1` (stereo not given) yielded a TGI of 86.7 µM.
On the same count and under the same terms, as for `Cc1cccc(/C=N/NC(=S)Nc2ccccc2)n1`, the figure is 32.3 µM.
`CCCN=C1CCN(Cc2ccccc2)c2ccccc2N1` displayed a TGI of 27.5 µM.
The same measure, in the same setting: as for `CC(C)c1ccc(/C=C2/C=C(c3ccc4ccccc4c3)OC2=O)cc1`, the figure is > 100 µM.
On the same count and under the same terms, as for `COc1cc(/C=C/C(=N\NS(=O)(=O)c2ccc(C)cc2)c2sc(NNC(C)=O)nc2C)ccc1O`, the figure is > 100 µM.
Same read-out and setting: as for `Oc1ccc(-c2nc(-c3cccnc3)c(-c3ccc(F)cc3)[nH]2)cc1`, the figure is 35 µM; as for `CC(C)/C(Cl)=N\OC(=O)Nc1ccc(S(N)(=O)=O)cc1`, 25.4 µM; as for `CNC(=O)OCC1=C(COC(=O)NC)C(C)N(c2ccc(OC)cc2)C1` (stereo not given), > 100 µM.
The molecule `N#CC1=C(N)N(c2ccccc2)C(c2ccco2)C1(C#N)C#N` (stereo not given) had a TGI of 66.8 µM.
In turn, `O=S1(=O)NC(=NCc2c[nH]c3ccccc23)N(c2ccccc2)c2ccncc21` yielded a TGI of 43.3 µM.
Same read-out and setting: as for `Cc1ccsc1/C=N/Nc1ncccn1`, the figure is > 100 µM; as for `Nc1cccc2cc(Cl)cnc12`, > 100 µM; as for `COc1c(C)c(C/C=C(\C)CCCCO[Si](c2ccccc2)(c2ccccc2)C(C)(C)C)c(OC)c(OC)c1OC`, > 46.4 µM.
